# Source: US20240336565A1, “SOLID FORMS OF OSANETANT” (Acer Therapeutics, Inc., priority 2021, published 2024)
# Assays:
# [1] = Comparative studies: 7-day stability; type: physicochemical; conditions: 7 Day Stability
# Method: Osanetant p-toluenesulfonic acid Form 1, osanetant benzene sulfonic acid Form 3, osanetant naphthalene-2-sulfonic acid Form 3, and osanetant phosphoric acid Form 7 were compared. Osanetant phosphoric acid Form 7 was obtained when preparation of osanetant phosphoric acid Form 4 was repeated and found to be not reproducible, and Form 7 was determined to be a mixture of hydrates).
# Thus, osanetant benzene sulfonic acid salt Form 1 and osanetant p-toluene sulfonic acid salt Form 1 were identified as advantageous salts.
# [2] = Disproportionation study (stirring in water, XRPD, pH of liquor); type: physicochemical; conditions: slurry in water at 25° C., 24 h
# Method: After 24 h total, a white slurry was observed and was isolated by centrifugation. The solids were analyzed by XRPD. The pH of the filtered liquor was measured at 5.63. […] After 24 h total, a white slurry was observed and was isolated by centrifugation. The solids were analyzed by XRPD. The pH of the filtered liquor was measured (pH=5.09).
# [3] = Thermodynamic solubility in water and pH buffers; conditions: 24 h Solubility at 37° C.
# [4] = Long term stability: oxidation (6% H2O2) at ambient temperature; type: physicochemical; conditions: for T = 1 month Purity / T = 1 day Purity / T = 2 day Purity / T = 4 day Purity / T = 7 day Purity / T = 14 day Purity: 6% H2O2, ambient, dark; for T = 2 day Purity: 2 days; for T = 4 day Purity: 4 days; for T = 7 day Purity: 7 days; for T = 14 day Purity: 14 days; for Control Purity: 6% H2O2 ambient study
# Method: (§1) Osanetant p-toluenesulfonic acid Form 1 and osanetant benzenesulfonic acid Form 1 were tested for long-term stability across a number of different conditions, as detailed below.
# (§2) Oxidation at Ambient Temperature-Osanetant p-toluenesulfonic acid Form 1 and osanetant benzenesulfonic acid Form 1 were prepared at an osanetant content 10 times the normal working concentration then added to HPLC vials containing 6% H2O2 and stored in the dark at ambient laboratory conditions. Samples were diluted to 2 mg/mL for analysis and were taken after T=1, 2, 4, 7, and 14 days storage. […] The purity of the resulting material is described in Table 46: […]
# [5] = Long term stability: base (2M NaOH) at ambient temperature; type: physicochemical; conditions: for Control Purity: 2M NaOH ambient study; for T = 1 month Purity / T = 1 day Purity / T = 2 day Purity / T = 4 day Purity / T = 7 day Purity / T = 14 day Purity: 2M NaOH, ambient, dark; for T = 2 day Purity: 2 days; for T = 4 day Purity: 4 days; for T = 7 day Purity: 7 days; for T = 14 day Purity: 14 days
# Method: as §1
# as §2, with “Base” for “Oxidation”, “Temperature—Osanetant” for “Temperature-Osanetant”, “2M NaOH” for “6% H2O2”, “44:” for “46:”
# [6] = Long term stability: acid stability (2M HCl) at 60° C.; type: physicochemical; conditions: for Control Purity: 2M HCl 60° C. study; for T = 1 day Purity / T = 2 day Purity / T = 4 day Purity: 2M HCl, 60° C., dark; for T = 2 day Purity: 2 days; for T = 4 day Purity: 4 days
# Method: as §1
# Acid Stability at 60° C.—Osanetant p-toluenesulfonic acid Form 1 and osanetant benzenesulfonic acid Form 1 were prepared at an osanetant content 10 times the normal working concentration then added to HPLC vials containing 2M HCl and stored in a darkened oven at 60° C. Samples were diluted to 2 mg/mL for analysis and were taken after T=1, 2, and 4 days storage.
# [7] = Long term stability: acid stability (2M HCl) at ambient temperature; type: physicochemical; conditions: for Control Purity: 2M HCl ambient study; for T = 1 month Purity / T = 1 day Purity / T = 2 day Purity / T = 4 day Purity / T = 7 day Purity / T = 14 day Purity: 2M HCl, ambient, dark; for T = 2 day Purity: 2 days; for T = 4 day Purity: 4 days; for T = 7 day Purity: 7 days; for T = 14 day Purity: 14 days
# Method: as §1
# as §2, with “Acid Stability” for “Oxidation”, “2M HCl” for “6% H2O2”, “42:” for “46:”
# [8] = Long term stability: oxidation (6% H2O2) at 60° C.; type: physicochemical; conditions: for Control Purity: 6% H2O2 60° C. study; for T = 1 month Purity / T = 1 day Purity / T = 2 day Purity / T = 4 day Purity / T = 7 day Purity / T = 14 day Purity: 6% H2O2, 60° C., dark; for T = 2 day Purity: 2 days; for T = 4 day Purity: 4 days; for T = 7 day Purity: 7 days; for T = 14 day Purity: 14 days
# Method: as §1
# as §2, with “60° C.—Osanetant” for “Ambient Temperature-Osanetant”, “a darkened oven” for “the dark”, “60° C.” for “ambient laboratory conditions.”, “47:” for “46:”
# [9] = Long term stability: thermal stability of solids at 60° C.; type: physicochemical; conditions: for T = 1 month Purity / T = 1 day Purity / T = 2 day Purity / T = 4 day Purity / T = 7 day Purity / T = 14 day Purity: solid at 60° C., dark; for T = 2 day Purity: 2 days; for T = 4 day Purity: 4 days; for T = 7 day Purity: 7 days; for T = 14 day Purity: 14 days; for Control Purity: solid, Purity = 100-total other substances
# Method: as §1
# Thermal stability of solids at 60° C.—Osanetant p-toluenesulfonic acid Form 1 and osanetant benzenesulfonic acid Form 1 were stored in a darkened oven at 60° C. in glass vials. Samples were taken after T=1, 2, 4, 7, and 14 days storage. […] The purity of the resulting material is described in Table 41: […]
# [10] = Long term stability: base (2M NaOH) at 60° C.; type: physicochemical; conditions: for Control Purity: 2M NaOH 60° C. study; for T = 4 day Purity: 4 days; for T = 7 day Purity: 7 days; for T = 14 day Purity: 14 days
# Method: as §1
# as §2, with “Base” for “Oxidation”, “60° C.—Osanetant” for “Ambient Temperature-Osanetant”, “2M NaOH” for “6% H2O2”, “a darkened oven” for “the dark”, “60° C.” for “ambient laboratory conditions.”, “45:” for “46:”
smiles,measurement,setting,value
CC(=O)N(C)C1(c2ccccc2)CCN(CCC[C@]2(c3ccc(Cl)c(Cl)c3)CCCN(C(=O)c3ccccc3)C2)CC1.O=S(=O)(O)c1ccccc1 [Besylate Form 3],HPLC Impurity Content,[1]; 40° C./75% RH,0.06 % w/w
same,HPLC Impurity Content,[1]; 80° C.,0.24 % w/w
same,HPLC Impurity Content,[1]; Ambient Light,0.05 % w/w
same,Liquor pH,[2],5.09
same,Concentration,[3]; pH 1.2,216.3 µg/mL
same,Concentration,[3]; pH 4.5,232.4 µg/mL
same,Concentration,[3]; pH 6.8,363.7 µg/mL
CC(=O)N(C)C1(c2ccccc2)CCN(CCCC2(c3ccc(Cl)c(Cl)c3)CCCN(C(=O)c3ccccc3)C2)CC1.O=S(=O)(O)c1ccccc1 (centres unmarked) [benzenesulfonic acid Form 1],T = 1 month Purity,[4],99.5
same,T = 1 day Purity,[4],99.9
same,T = 2 day Purity,[4],99.9
same,T = 4 day Purity,[4],99.9
same,T = 7 day Purity,[4],99.8
same,T = 14 day Purity,[4],99.8
same,Control Purity,[4],99.9
same,Control Purity,[5],99.9
same,T = 1 month Purity,[5],99.9
same,T = 1 day Purity,[5],99.9
same,T = 2 day Purity,[5],99.9
same,T = 4 day Purity,[5],99.9
same,T = 7 day Purity,[5],99.9
same,T = 14 day Purity,[5],100.0
same,Control Purity,[6],99.9
same,T = 1 day Purity,[6],94.7
same,T = 2 day Purity,[6],89.2
same,T = 4 day Purity,[6],81.0
same,Control Purity,[7],99.9
same,T = 1 month Purity,[7],98.5
same,T = 1 day Purity,[7],100.0
same,T = 2 day Purity,[7],100.0
same,T = 4 day Purity,[7],99.9
same,T = 7 day Purity,[7],99.5
same,T = 14 day Purity,[7],99.3
same,Control Purity,[8],99.9
same,T = 1 month Purity,[8],77.8
same,T = 1 day Purity,[8],91.9
same,T = 2 day Purity,[8],97.2
same,T = 4 day Purity,[8],94.8
same,T = 7 day Purity,[8],93.1
same,T = 14 day Purity,[8],76.6
same,T = 1 month Purity,[9],100.0
same,T = 1 day Purity,[9],99.9
same,T = 2 day Purity,[9],99.9
same,T = 4 day Purity,[9],99.9
same,T = 7 day Purity,[9],99.9
same,T = 14 day Purity,[9],100.0
same,Control Purity,[9],99.9
same,Control Purity,[10],99.9
same,T = 1 month Purity,"[10]; 2M NaOH, 60° C., dark",95.8
same,T = 1 day Purity,"[10]; 2M NaOH, 60° C., dark",99.7
same,T = 4 day Purity,"[10]; 2M NaOH, 60° C., dark",98.5
same,T = 7 day Purity,"[10]; 2M NaOH, 60° C., dark",97.3
same,T = 14 day Purity,"[10]; 2M NaOH, 60° C., dark",95.5
CC(=O)N(C)C1(c2ccccc2)CCN(CCC[C@]2(c3ccc(Cl)c(Cl)c3)CCCN(C(=O)c3ccccc3)C2)CC1.Cc1ccc(S(=O)(=O)O)cc1 [p-toluenesulfonic acid Form 1],T = 1 month Purity,[4],99.7
same,T = 1 day Purity,[4],99.8
same,T = 2 day Purity,[4],99.8
same,T = 4 day Purity,[4],99.8
same,T = 7 day Purity,[4],99.8
same,T = 14 day Purity,[4],99.8
same,Control Purity,[4],99.8
same,Control Purity,[5],99.8
same,T = 1 month Purity,[5],99.7
same,T = 1 day Purity,[5],99.8
same,T = 2 day Purity,[5],99.8
same,T = 4 day Purity,[5],99.8
same,T = 7 day Purity,[5],99.8
same,T = 14 day Purity,[5],99.8
same,Control Purity,[6],99.8
same,T = 1 day Purity,[6],94.8
same,T = 2 day Purity,[6],89.0
same,T = 4 day Purity,[6],80.5
same,Control Purity,[7],99.8
same,T = 1 month Purity,[7],98.0
same,T = 1 day Purity,[7],99.8
same,T = 2 day Purity,[7],99.8
same,T = 4 day Purity,[7],99.9
same,T = 7 day Purity,[7],99.6
same,T = 14 day Purity,[7],99.0
same,Control Purity,[8],99.8
same,T = 1 month Purity,[8],65.5
same,T = 1 day Purity,[8],99.3
same,T = 2 day Purity,[8],96.6
same,T = 4 day Purity,[8],97.4
same,T = 7 day Purity,[8],95.2
same,T = 14 day Purity,[8],92.4
same,T = 1 month Purity,[9],99.5
same,T = 1 day Purity,[9],99.7
same,T = 2 day Purity,[9],99.7
same,T = 4 day Purity,[9],99.7
same,T = 7 day Purity,[9],99.6
same,T = 14 day Purity,[9],99.7
same,Control Purity,[9],99.8
same,Control Purity,[10],99.8
same,T = 1 month Purity,"[10]; 2M NaOH, 60° C., dark",94.0
same,T = 1 day Purity,"[10]; 2M NaOH, 60° C., dark",99.6
same,T = 2 day Purity,"[10]; 2M NaOH, 60° C., dark, 2 days",99.2
same,T = 4 day Purity,"[10]; 2M NaOH, 60° C., dark",98.4
same,T = 7 day Purity,"[10]; 2M NaOH, 60° C., dark",97.1
same,T = 14 day Purity,"[10]; 2M NaOH, 60° C., dark",94.7
